Experimental findings from patent publication US20250388592A1 (REMYND N.V., priority 2022, published 2025) are described below.

For experiment [1], the system named is M17_3TAU(P301L) cells. Briefly: TAU-induced cytotoxicity (LDH) in the neuroblastoma tauopathy model. It counts as cell-based. The note with it: Homo sapiens, 168 h, inhibition of TAU-induced toxicity, 7 days retinoic acid differentiation, LDH readout. The essentials:
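Stably transfected BE-M17 cells expressing human TAU-P301L, seeded in serum-free detection medium, then differentiated with 2.5 μM RA (added in equal volume) for 7 days at 37° C/5% CO2 to induce TAU aggregation. Cytotoxicity = supernatant LDH increase over total LDH; EC50 from dose-dependent inhibition curves.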

Experiment [2] deals with Tau-P301S transgenic mice. Briefly: Hippocampal long-term potentiation (CA3-CA1 fEPSP) in human Tau transgenic mice model of Alzheimer disease. The note with it: 41-60 minute post-induction interval. It is filed as in vivo, mouse. The text has this: The Tau-P301S line of mice was transgenic for the 383 aa isoform of human tau with the P301S mutation (Allen et al., 2002). In these mice, a clinical mutant of the human Tau (P301S) was expressed under control of the murine Thy1 promoter (neuron-specific expression) in C57Bl/6JxCBA/ca background. The homozygous hTauP301S-Tg model used consisted of the progeny from a cross between two homozygous hTauP301S-Tg parental mice in C57Bl/6JxCBA/ca background, bred in SPF breeding conditions.
Six mice (3,5 months of age) per group were treated orally once daily for 7 days with vehicle or 0.4, 2 or 10 mg/kg cpd B061, or twice daily for 7 days with vehicle or 25 mg/kg cpd B112, formulated in labrasol/capryol (70/30% W/V). A wild type vehicle group was included as well. The mice in study were sacrificed after a minimum of 7 days of acclimatization and 7 days of dosing. LTP measurements occurred between 90 and 120 minutes after excision of the brain.
Mice were anaesthetized with isoflurane and then decapitated. Heads were immediately immersed in ice-cold freshly prepared artificial CSF (cerebrospinal fluid) (aCSF) for at least 2 min before brain extraction. Acute slices (400 μm thick) were prepared with a vibratome (VT 1000S; Leica Microsystems, Bannockburn, IL) in ice-cold gassed aCSF. Sections were incubated in aCSF at 34° C. for 20 min and then kept at room temperature for at least 1 h before recording. aCSF was composed of the following (in mM): 119 NaCl, 11 d-glucose, 1.3 MgCl2·6H2O, 1.3 NaH2PO4, 2.5 KCl, 2.5 CaCl2, 26 NaHCO3, gassed with O2/CO2 (95/5%) at least 20 min before use and throughout the experiment.
Recordings were performed in a submerged chamber continuously flowed with aCSF at 2 ml/min. Extracellular field excitatory postsynaptic potentials (fEPSPs) were recorded in the CA1 stratum radiatum using a glass micropipette filled with aCSF. fEPSPs were evoked by the electrical

The EC50 is the concentration that produces a half-maximal response.

As to `O=C(CC1CCC(F)(F)CC1)N1CC2(CN(Cc3ncccc3C(F)(F)F)C2)C1` [Cpd B112], the EC50 in experiment [1] is 12.2 nM. Moreover, the “Average fEPSP slope (% of baseline)” value in experiment [2] (25 mpk orally twice daily for 7 days) is recorded as 144.4 % of baseline. As to `O=C(Cc1ccc(Cl)cc1)N1CC2(CN(Cc3ccc(F)cc3)C2)C1` [Cpd B061, 2-(4-chlorophenyl)-1-(6-(4-fluorobenzyl)-2,6-diazaspiro[3.3]heptan-2-yl)ethanone], the EC50 in experiment [1] worked out at 2.46 nM. Moreover, the “Average fEPSP slope (% of baseline)” value in experiment [2] (0.4 mpk orally once daily for 7 days) is recorded as 129.0 % of baseline; in experiment [2] (2 mpk orally once daily for 7 days), 152.2 % of baseline; in experiment [2] (10 mpk orally once daily for 7 days) it was 169.3 % of baseline.

`O=C(Cc1ccc(F)cc1)N1CC2(CN(CCCc3ccccc3)C2)C1` [Cpd B001, 2-(4-fluorophenyl)-1-(6-(3-phenylpropyl)-2,6-diazaspiro[3.3]heptan-2-yl)ethanone] displayed a 50% effective concentration (EC50) in experiment [1] of 10.7 nM. With `COc1cccc(CN2CC3(C2)CN(C(=O)OC2CCC(F)(F)CC2)C3)c1` [Cpd B135], the EC50 in experiment [1] is less than 0.19 nM. Still for that read-out and setting: the value for `Cc1cccnc1CN1CC2(C1)CN(C(=O)NCC1CCC(F)(F)CC1)C2` [Cpd B198] was 16.5 nM; that for `Cc1cccnc1CN1CC2(C1)CN(C(=O)NC1CCCCC1)C2` [Cpd B178] was 128 nM; that for `COc1cccc(CN2CC3(CN(Cc4ccc(F)cc4)C3)C2)c1` [Cpd B226] was 1.16 nM. With `O=C(NC1CCC(F)(F)CC1)N1CC2(CN(Cc3ncccc3F)C2)C1` [Cpd B441], in experiment [1], the 50% effective concentration (EC50) was 253 nM. In experiment [1], `Cn1ccc(CN2CC3(C2)CN(C(=O)CC2CCC(F)(F)CC2)C3)n1` [Cpd B462] returned a concentration for a half-maximal effect (EC50) of 53.1 nM.

`COC(=O)c1ccc(CC(=O)N2CC3(CN(Cc4ccc(F)cc4)C3)C2)cc1` [Cpd B428]: a half-maximal response in experiment [1] (EC50) required 778 nM.

The molecule `O=C(OC1CCC(F)(F)CC1)N1CC2(CN(Cc3ncccc3C(F)(F)F)C2)C1` [Cpd B155] had a half-maximal effective concentration (EC50) in experiment [1] of 4.67 nM. Still for that read-out and setting: the value for `Cn1cc(Cl)c(CN2CC3(C2)CN(C(=O)NCc2ccc(F)cc2)C3)n1` [Cpd B444] was 167 nM; that for `CCn1cc(CN2CC3(C2)CN(C(=O)NCc2ccc(F)cc2)C3)cn1` [Cpd B410] was 3320 nM. With `Cn1ncc(CN2CC3(C2)CN(C(=O)OCC2CCC(F)(F)CC2)C3)c1Cl` [Cpd B158], in experiment [1], the concentration for a half-maximal effect (EC50) came out at 65.3 nM. Consider `Cn1cc(Cl)c(CN2CC3(C2)CN(C(=O)NCC2CCC(F)(F)CC2)C3)n1` [Cpd B202], for which a half-maximal effect in experiment [1] (EC50) was put at 14.1 nM.
